Data on seven compounds can be found in US20230129438A1, “IMMUNOMODULATING IMINE-OXAZOLINE AZALIDES” (Zoetis Services LLC, priority 2020, published 2023).

What is called IC50 is the concentration at which inhibition is half-maximal. A high value points to weaker potency in that assay.

One data set relates to TNF-α. Put plainly: Bovine whole blood assay, LPS-induced TNF-α. In kind it is cell-based. Conditions: LPS 1 μg/mL. The protocol: (§1) (protected from light) for 30 minutes.
The subject of a further data set is IL-1β. Put plainly: Bovine whole blood assay, IL-1β. The class given is cell-based. The note with it: drug concentration giving overstimulation of IL-1β over LPS (cellular toxicity signal). As to the method: as §1
Another data set relates to P. multocida 46572. Put plainly: In vivo mouse lung infection challenge model (murine efficacy model). The note with it: 20 mg/kg subcutaneous, CD-1 mice, intranasal challenge, to Day 10; approximate (~%), harmonized relative to vehicle and M9.

SMILES strings stand for the structures. Bounds are passed on as bounds.

In the data set on TNF-α, `CCNC[C@]1(O)[C@H](C)O[C@@H](O[C@H]2[C@H](C)[C@@H](O[C@@H]3O[C@H](C)C[C@H]4[C@H]3OC(=Nc3ccccc3)N4C)[C@](C)(O)C[C@@H](C)CN[C@H](C)[C@@H](O)[C@](C)(O)[C@@H](CC)OC(=O)[C@@H]2C)C[C@@]1(C)OC` (mixture of isomers) [Example A-3, (E/Z)-(2R,3S,4R,5R,8R,10R,11R,12S,13S,14R)-11-(((3aR,4S,6R,7aS)-1,6-dimethyl-2-(phenylimino)hexahydro-2H-pyrano[4,3-d]oxazol-4-yl)oxy)-2-ethyl-13-(((2R,4R,5S,6S)-5-((ethylamino)methyl)-5-hydroxy-4-methoxy-4,6-dimethyltetrahydro-2H-pyran-2-yl)oxy)-3,4,10-trihydroxy-3,5,8,10,12,14-hexamethyl-1-oxa-6-azacyclopentadecan-15-one] showed an IC50 of 20 µM. Besides, the “IL-Iβ OS of LPS” value in the data set with IL-1β is 5 µM.

For the compound `CCCNC[C@]1(O)[C@H](C)O[C@@H](O[C@H]2[C@H](C)[C@@H](O[C@@H]3O[C@H](C)C[C@H]4[C@H]3OC(=Nc3ccccc3)N4C)[C@](C)(O)C[C@@H](C)CN[C@H](C)[C@@H](O)[C@](C)(O)[C@@H](CC)OC(=O)[C@@H]2C)C[C@@]1(C)OC` (mixture of isomers) [Example A-6, (E/Z)-(2R,3S,4R,5R,8R,10R,11R,12S,13S,14R)-11-(((3aR,4S,6R,7aS)-1,6-dimethyl-2-(phenylimino)hexahydro-2H-pyrano[4,3-d]oxazol-4-yl)oxy)-2-ethyl-3,4,10-trihydroxy-13-(((2R,4R,5S,6S)-5-hydroxy-4-methoxy-4,6-dimethyl-5-((propylamino)methyl)tetrahydro-2H-pyran-2-yl)oxy)-3,5,8,10,12,14-hexamethyl-1-oxa-6-azacyclopentadecan-15-one], the IC50 in the data set with TNF-α was under 5 µM. In addition, the “IL-Iβ OS of LPS” value with IL-1β amounted to 13 µM. Moreover, in the data set with P. multocida 46572, the “% Survival” value came to 54%.

In the data set on TNF-α, `CCNC[C@]1(O)[C@H](C)O[C@@H](O[C@H]2[C@H](C)[C@@H](O[C@@H]3O[C@H](C)C[C@H]4[C@H]3OC(=Nc3ccc(OC)cc3)N4C)[C@](C)(O)C[C@@H](C)CN[C@H](C)[C@@H](O)[C@](C)(O)[C@@H](CC)OC(=O)[C@@H]2C)C[C@@]1(C)OC` (mixture of isomers) [Example A-12, (E/Z)-(2R,3S,4R,5R,8R,10R,11R,12S,13S,14R)-2-ethyl-13-(((2R,4R,5S,6S)-5-((ethylamino)methyl)-5-hydroxy-4-methoxy-4,6-dimethyltetrahydro-2H-pyran-2-yl)oxy)-3,4,10-trihydroxy-11-(((3aR,4S,6R,7aS)-2-((4-methoxyphenyl)imino)-1,6-dimethylhexahydro-2H-pyrano[4,3-d]oxazol-4-yl)oxy)-3,5,8,10,12,14-hexamethyl-1-oxa-6-azacyclopentadecan-15-one] showed an IC50 of 15 µM. Also, the “IL-Iβ OS of LPS” value in the data set on IL-1β is 32 µM.

On to `CCCNC[C@]1(O)[C@H](C)O[C@@H](O[C@H]2[C@H](C)[C@@H](O[C@@H]3O[C@H](C)C[C@H]4[C@H]3OC(=Nc3ccc(OC)cc3)N4C)[C@](C)(O)C[C@@H](C)CN(C)[C@H](C)[C@@H](O)[C@](C)(O)[C@@H](CC)OC(=O)[C@@H]2C)C[C@@]1(C)OC` (mixture of isomers) [Example A-30, (E/Z)-(2R,3S,4R,5R,8R,10R,11R,12S,13S,14R)-2-ethyl-3,4,10-trihydroxy-13-(((2R,4R,5S,6S)-5-hydroxy-4-methoxy-4,6-dimethyl-5-((propylamino)methyl)tetrahydro-2H-pyran-2-yl)oxy)-11-(((3aR,4S,6R,7aS)-2-((4-methoxyphenyl)imino)-1,6-dimethylhexahydro-2H-pyrano[4,3-d]oxazol-4-yl)oxy)-3,5,6,8,10,12,14-heptamethyl-1-oxa-6-azacyclopentadecan-15-one], for which the IC50 with TNF-α stood at 10 µM. The “IL-Iβ OS of LPS” value in the data set on IL-1β was found to be 16 µM.

Compound `CCCNC[C@]1(O)[C@H](C)O[C@@H](O[C@H]2[C@H](C)[C@@H](O[C@@H]3O[C@H](C)C[C@H]4[C@H]3OC(=Nc3ccccc3)N4C)[C@](C)(O)C[C@@H](C)CN(CCC)[C@H](C)[C@@H](O)[C@](C)(O)[C@@H](CC)OC(=O)[C@@H]2C)C[C@@]1(C)OC` (mixture of isomers) [Example A-34, (E/Z)-(2R,3S,4R,5R,8R,10R,11R,12S,13S,14R)-11-(((3aR,4S,6R,7aS)-1,6-dimethyl-2-(phenylimino)hexahydro-2H-pyrano[4,3-d]oxazol-4-yl)oxy)-2-ethyl-3,4,10-trihydroxy-13-(((2R,4R,5S,6S)-5-hydroxy-4-methoxy-4,6-dimethyl-5-((propylamino)methyl)tetrahydro-2H-pyran-2-yl)oxy)-3,5,8,10,12,14-hexamethyl-6-propyl-1-oxa-6-azacyclopentadecan-15-one] displayed an IC50 in the data set with TNF-α of 7 µM. Besides, the “IL-Iβ OS of LPS” value in the data set with IL-1β turned out to be 6 µM.

On to `CC[C@H]1OC(=O)[C@H](C)[C@@H](O[C@H]2C[C@@](C)(OC)[C@](O)(CN3CCN(C)CC3)[C@H](C)O2)[C@H](C)[C@@H](O[C@@H]2O[C@H](C)C[C@H]3[C@H]2OC(=Nc2ccccc2)N3C)[C@](C)(O)C[C@@H](C)CN[C@H](C)[C@@H](O)[C@]1(C)O` (mixture of isomers) [Example B-1, (E/Z)-(2R,3S,4R,5R,8R,10R,11R,12S,13S,14R)-11-(((3aR,4S,6R,7aS)-1,6-dimethyl-2-(phenylimino)hexahydro-2H-pyrano[4,3-d]oxazol-4-yl)oxy)-2-ethyl-3,4,10-trihydroxy-13-(((2R,4R,5S,6S)-5-hydroxy-4-methoxy-4,6-dimethyl-5-((4-methylpiperazin-1-yl)methyl)tetrahydro-2H-pyran-2-yl)oxy)-3,5,8,10,12,14-hexamethyl-1-oxa-6-azacyclopentadecan-15-one], for which the IC50 with TNF-α came to 8 µM. Besides, the “IL-Iβ OS of LPS” value in the data set on IL-1β came out at 13 µM. In addition, the “% Survival” value in the data set on P. multocida 46572 was determined as 43%.

In the data set on TNF-α, `CC[C@H]1OC(=O)[C@H](C)[C@@H](O[C@H]2C[C@@](C)(OC)[C@](O)(CN3CCN(CC)CC3)[C@H](C)O2)[C@H](C)[C@@H](O[C@@H]2O[C@H](C)C[C@H]3[C@H]2OC(=Nc2ccccc2)N3C)[C@](C)(O)C[C@@H](C)CN[C@H](C)[C@@H](O)[C@]1(C)O` (mixture of isomers) [Example B-2, (E/Z)-(2R,3S,4R,5R,8R,10R,11R,12S,13S,14R)-11-(((3aR,4S,6R,7aS)-1,6-dimethyl-2-(phenylimino)hexahydro-2H-pyrano[4,3-d]oxazol-4-yl)oxy)-2-ethyl-13-(((2R,4R,5S,6S)-5-((4-ethylpiperazin-1-yl)methyl)-5-hydroxy-4-methoxy-4,6-dimethyltetrahydro-2H-pyran-2-yl)oxy)-3,4,10-trihydroxy-3,5,8,10,12,14-hexamethyl-1-oxa-6-azacyclopentadecan-15-one] came in with an IC50 of 6 µM. Moreover, in the data set on IL-1β, the “IL-Iβ OS of LPS” value amounted to 13 µM.
